Converted amounts (≈) assume the structure as drawn. Like-named read-outs stand apart in the source and are kept apart here.
Tests used:
KDM5 = conditions: H3K4Me3 levels in PC9 cells; cited from earlier work
KDM5B [1] = target: T1, KDM5B (Homo sapiens, UniProt Q9UGL1); assay: cell-based
T1 sequence (Q9UGL1 26-772): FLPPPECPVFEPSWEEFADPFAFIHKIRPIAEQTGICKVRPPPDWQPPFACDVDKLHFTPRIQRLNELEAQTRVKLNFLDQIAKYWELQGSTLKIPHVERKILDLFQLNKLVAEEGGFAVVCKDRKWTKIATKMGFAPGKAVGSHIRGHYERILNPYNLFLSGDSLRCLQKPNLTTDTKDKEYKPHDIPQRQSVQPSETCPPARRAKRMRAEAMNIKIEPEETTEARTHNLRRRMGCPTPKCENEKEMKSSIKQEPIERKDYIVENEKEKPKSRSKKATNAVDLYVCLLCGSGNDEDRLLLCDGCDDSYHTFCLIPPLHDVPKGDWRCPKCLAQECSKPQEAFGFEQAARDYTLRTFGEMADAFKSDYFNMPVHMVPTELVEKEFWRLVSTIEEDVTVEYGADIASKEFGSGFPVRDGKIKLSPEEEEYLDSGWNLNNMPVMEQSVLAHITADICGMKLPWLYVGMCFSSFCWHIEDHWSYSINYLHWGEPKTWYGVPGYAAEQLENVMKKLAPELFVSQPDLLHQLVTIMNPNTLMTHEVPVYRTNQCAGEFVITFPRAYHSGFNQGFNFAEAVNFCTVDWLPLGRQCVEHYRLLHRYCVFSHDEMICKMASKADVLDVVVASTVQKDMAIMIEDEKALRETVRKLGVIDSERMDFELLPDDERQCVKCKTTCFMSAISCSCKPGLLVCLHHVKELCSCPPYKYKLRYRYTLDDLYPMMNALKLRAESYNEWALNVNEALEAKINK

KDM5B [2] = target: KDM5B (Homo sapiens, UniProt Q9UGL1); assay: cell-based; remark: listed apart in the source
Target sequence in this assay (Q9UGL1 whole entry): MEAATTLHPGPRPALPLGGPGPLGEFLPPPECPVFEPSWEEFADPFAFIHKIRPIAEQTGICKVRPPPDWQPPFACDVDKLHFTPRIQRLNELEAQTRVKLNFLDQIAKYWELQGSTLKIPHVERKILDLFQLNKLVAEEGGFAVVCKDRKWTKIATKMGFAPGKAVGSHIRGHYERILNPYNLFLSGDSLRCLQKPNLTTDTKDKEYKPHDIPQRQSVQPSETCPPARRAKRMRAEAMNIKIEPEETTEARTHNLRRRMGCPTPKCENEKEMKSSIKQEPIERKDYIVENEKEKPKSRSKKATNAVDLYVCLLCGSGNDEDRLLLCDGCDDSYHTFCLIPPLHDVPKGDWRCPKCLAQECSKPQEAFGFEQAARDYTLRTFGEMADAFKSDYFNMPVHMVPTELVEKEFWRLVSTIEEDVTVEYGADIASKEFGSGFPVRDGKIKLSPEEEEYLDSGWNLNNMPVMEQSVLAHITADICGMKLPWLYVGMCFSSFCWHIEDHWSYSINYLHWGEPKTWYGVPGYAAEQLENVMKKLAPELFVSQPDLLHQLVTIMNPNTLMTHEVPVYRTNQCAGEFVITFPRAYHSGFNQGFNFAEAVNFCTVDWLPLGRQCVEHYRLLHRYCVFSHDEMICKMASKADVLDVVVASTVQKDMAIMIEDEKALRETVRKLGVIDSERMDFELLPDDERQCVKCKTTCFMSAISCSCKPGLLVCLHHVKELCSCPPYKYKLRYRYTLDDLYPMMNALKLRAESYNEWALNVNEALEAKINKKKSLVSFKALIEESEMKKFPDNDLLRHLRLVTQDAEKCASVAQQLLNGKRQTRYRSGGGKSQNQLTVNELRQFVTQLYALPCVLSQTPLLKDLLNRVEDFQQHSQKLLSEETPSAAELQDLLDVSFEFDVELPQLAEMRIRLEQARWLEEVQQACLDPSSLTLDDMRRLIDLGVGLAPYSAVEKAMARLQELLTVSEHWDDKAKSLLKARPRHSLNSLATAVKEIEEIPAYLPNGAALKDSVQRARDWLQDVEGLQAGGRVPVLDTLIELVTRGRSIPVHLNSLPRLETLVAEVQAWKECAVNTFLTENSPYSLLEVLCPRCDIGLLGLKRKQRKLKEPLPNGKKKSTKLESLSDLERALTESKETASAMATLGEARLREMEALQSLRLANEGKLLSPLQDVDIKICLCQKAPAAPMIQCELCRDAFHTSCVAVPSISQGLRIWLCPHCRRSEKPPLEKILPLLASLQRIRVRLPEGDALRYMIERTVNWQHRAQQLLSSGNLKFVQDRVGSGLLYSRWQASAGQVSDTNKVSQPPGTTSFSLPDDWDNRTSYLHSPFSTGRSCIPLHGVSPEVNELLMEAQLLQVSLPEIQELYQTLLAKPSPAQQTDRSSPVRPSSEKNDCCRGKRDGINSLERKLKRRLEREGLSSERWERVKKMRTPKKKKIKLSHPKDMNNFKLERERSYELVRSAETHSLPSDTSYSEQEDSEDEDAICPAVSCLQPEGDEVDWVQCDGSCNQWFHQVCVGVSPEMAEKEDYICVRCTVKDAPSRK

[3] = In vitro intrinsic microsomal clearance, mouse; conditions: microsomes
LNCaP cells = assay: Cell uptake and stability in LNCaP cellular culture; type: in vitro ADME, human; conditions: 10 μM, up to 120 h
Procedure: Following 1, 6, 24, 48, 72 and 120 h incubation, media was collected from cells and immediately frozen at −80 °C. Cells were trypsinised, pelleted and then frozen at −80 °C until analysis.
Cell and tissue culture media extracts were analysed using a Dionex Ultimate 3000 UHPLC system coupled to a Thermo Scientific Q Exactive Plus orbitrap mass spectrometer (Thermo Fisher Scientific Inc., Waltham, USA). Separation of analytes was achieved using an Acquity UPLC HSS T3 column (1.8 μm, 100 × 2.1 mm) (Waters, Elstree, UK) at a temperature of 50 °C and a binary mobile phase gradient at a flow rate of 0.4 mL/min. […] Sample analysis was by electrospray atmospheric pressure ionization combined with full scan acquisition in positive ion mode. […] Full MS/dd-MS^2 (full MS scan followed by data dependent MS/MS) and Full MS/AIF (full MS scan followed by all ion fragmentation) workflows were used in combination. Identification/presence of metabolites was undertaken with the aid of the software Compound Discoverer (v2.0.0.303, Thermo Fisher Scientific Inc., Waltham, USA).

[4] = In vitro intrinsic microsomal clearance, rat; conditions: microsomes
[5] = In vitro intrinsic microsomal clearance, human; conditions: microsomes
[6] = Human plasma protein binding
[7] = Kinetic aqueous solubility

Row | SMILES | EC50 (KDM5) | EC50 (KDM5B [1]) | EC50 (KDM5B [2]) | microsomal CLint [3] | cell uptake (LNCaP cells) | stability in cellular culture (metabolites in cells or media) (LNCaP cells) | microsomal CLint [4] | microsomal CLint [5] | fraction unbound [6] | solubility kinetic [7]
1 | CC(C)c1c(-c2cnn(C(C)(C)C)c2)[nH]c2c(C#N)cnn2c1=O [Compound 6] | 340 nM | 300 nM | 600 nM |  |  |  |  |  |  | 
2 | O=c1[nH]cnc2c(-n3cc(CCN4CCC5(CCc6ccccc65)CC4)cn3)nccc12 [Compound 19a, 8-(4-(2-(2,3-Dihydrospiro[indene-1,4′-piperidin]-1′-yl)ethyl)-1H-pyrazol-1-yl)pyrido[3,4-d]pyrimidin-4(3H)-one] |  |  |  | 7.5 µL/min/mg | uptake of the parent compounds in a time-dependent manner | no metabolites detected | 19.8 µL/min/mg | 24.7 µL/min/mg | 0.11 | 93.3 µM (≈ 39.8 µg/mL)
3 | O=c1[nH]cnc2c(-n3cc(CCN4CCC5(CCc6ccccc65)CC4)cn3)cccc12 [Compound 41] |  |  |  |  | uptake of the parent compounds in a time-dependent manner | no metabolites detected |  |  |  | 
